Assay results: patent US20260137703A1, “2-AMINO-PYRIDO[2,3-D]PYRIMIDIN-7(8H)-ONE AND 7-AMINO-1-PYRIMIDO[4,5-D]PYRIMIDIN-2(1 H)-ONE DERIVATIVES AS EGFR INHIBITORS FOR THE TREATMENT OF CANCER” (Cancer Research Technology Limited, priority 2022, published 2026)

How the values were obtained:
[1] = biological target: T1, Phospho-EGFR (Tyr1068) in A431 cells (Homo sapiens, UniProt P00533); experiment: HTRF pEGFR/total EGFR in A431 cells with EGF stimulation; type: cell-based; conditions: ratio pEGFR/total EGFR, compound 2.5 hours then 100 ng/ml EGF 30 mins
T1 construct: endogenous in cells; host or cells: A431
In short: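 Values are pEGFR(Tyr1068)/total EGFR HTRF ratios (665/620 nm) given as percent of the 0 μM control. Adhered A431 cells (20,000 per well, 24 h) had 2.5 h compound pretreatment in 0.1% DMSO, then 30 min of 100 ng/ml EGF before lysis.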

[2] = biological target: T2, Phospho-EGFR (Tyr1068) in H1975 C797S cells (CRISPR-edited EGFR C797S) (Homo sapiens, UniProt P00533, C797S/L858R/T790M); experiment: HTRF pEGFR/total EGFR in H1975 C797S cells; type: cell-based; conditions: ratio pEGFR/total EGFR, compound 3 hours
T2 construct: host or cells: H1975 C797S (CRISPR-edited)
In short: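 Readout is the HTRF-measured Tyr1068 phospho-EGFR to total EGFR ratio, normalised to the 0 μM control as percent. Preceding this, CRISPR-edited H1975 C797S cells, plated 24 h earlier, were exposed 3 h to duplicate compound doses in medium with 0.1% DMSO, then lysed on a shaker.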

[3] = biological target: CtermHisTag-mEGFR Wild type (Homo sapiens, UniProt P00533); experiment: biochemical
[4] = biological target: T3, Phospho-EGFR (Tyr1068) in H1975 cells (Homo sapiens, UniProt P00533, L858R/T790M); experiment: HTRF pEGFR/total EGFR in H1975 cells; type: cell-based; conditions: ratio pEGFR/total EGFR, compound 3 hours
T3 construct: host or cells: H1975
In short: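 Readout is the phospho-EGFR (Tyr1068) to total EGFR HTRF ratio, expressed relative to 0 μM control. Adhered H1975 cells were exposed to compound for 3 hours at 0.1% DMSO, duplicate wells, then lysed for 30 min at room temperature before two-wavelength fluorescence reading.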

T3 sequence (P00533 25-1210 T790M/L858R): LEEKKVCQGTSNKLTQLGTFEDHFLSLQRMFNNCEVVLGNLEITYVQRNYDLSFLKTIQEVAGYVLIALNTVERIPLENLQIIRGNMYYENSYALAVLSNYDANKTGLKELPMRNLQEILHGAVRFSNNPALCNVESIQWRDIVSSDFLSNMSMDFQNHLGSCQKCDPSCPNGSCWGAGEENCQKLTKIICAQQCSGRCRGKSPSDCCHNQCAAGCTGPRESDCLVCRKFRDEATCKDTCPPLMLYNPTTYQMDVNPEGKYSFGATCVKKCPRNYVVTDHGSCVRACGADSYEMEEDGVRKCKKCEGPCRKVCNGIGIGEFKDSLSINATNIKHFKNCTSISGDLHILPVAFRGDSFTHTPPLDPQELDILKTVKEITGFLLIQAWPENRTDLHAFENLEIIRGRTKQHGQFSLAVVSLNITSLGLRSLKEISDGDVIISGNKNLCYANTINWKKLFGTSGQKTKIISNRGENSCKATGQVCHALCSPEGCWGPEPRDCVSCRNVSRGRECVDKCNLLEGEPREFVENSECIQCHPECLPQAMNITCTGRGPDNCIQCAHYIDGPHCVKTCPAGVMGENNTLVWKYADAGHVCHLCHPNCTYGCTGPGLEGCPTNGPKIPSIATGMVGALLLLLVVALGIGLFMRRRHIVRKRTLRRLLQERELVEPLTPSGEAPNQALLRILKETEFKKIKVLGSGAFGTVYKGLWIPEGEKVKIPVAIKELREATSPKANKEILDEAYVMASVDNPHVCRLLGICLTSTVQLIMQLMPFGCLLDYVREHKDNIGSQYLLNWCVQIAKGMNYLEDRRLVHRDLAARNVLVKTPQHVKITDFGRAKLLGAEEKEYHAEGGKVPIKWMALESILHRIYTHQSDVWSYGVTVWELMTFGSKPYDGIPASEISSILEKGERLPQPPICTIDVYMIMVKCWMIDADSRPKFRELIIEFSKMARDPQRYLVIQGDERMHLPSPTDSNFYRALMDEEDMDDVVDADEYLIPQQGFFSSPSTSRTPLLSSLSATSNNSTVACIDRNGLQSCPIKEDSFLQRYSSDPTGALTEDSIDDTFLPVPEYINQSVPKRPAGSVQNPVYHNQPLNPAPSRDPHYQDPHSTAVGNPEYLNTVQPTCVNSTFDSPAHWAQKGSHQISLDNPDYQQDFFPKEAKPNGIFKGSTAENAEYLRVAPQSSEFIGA
T2 sequence (P00533 25-1210 T790M/C797S/L858R): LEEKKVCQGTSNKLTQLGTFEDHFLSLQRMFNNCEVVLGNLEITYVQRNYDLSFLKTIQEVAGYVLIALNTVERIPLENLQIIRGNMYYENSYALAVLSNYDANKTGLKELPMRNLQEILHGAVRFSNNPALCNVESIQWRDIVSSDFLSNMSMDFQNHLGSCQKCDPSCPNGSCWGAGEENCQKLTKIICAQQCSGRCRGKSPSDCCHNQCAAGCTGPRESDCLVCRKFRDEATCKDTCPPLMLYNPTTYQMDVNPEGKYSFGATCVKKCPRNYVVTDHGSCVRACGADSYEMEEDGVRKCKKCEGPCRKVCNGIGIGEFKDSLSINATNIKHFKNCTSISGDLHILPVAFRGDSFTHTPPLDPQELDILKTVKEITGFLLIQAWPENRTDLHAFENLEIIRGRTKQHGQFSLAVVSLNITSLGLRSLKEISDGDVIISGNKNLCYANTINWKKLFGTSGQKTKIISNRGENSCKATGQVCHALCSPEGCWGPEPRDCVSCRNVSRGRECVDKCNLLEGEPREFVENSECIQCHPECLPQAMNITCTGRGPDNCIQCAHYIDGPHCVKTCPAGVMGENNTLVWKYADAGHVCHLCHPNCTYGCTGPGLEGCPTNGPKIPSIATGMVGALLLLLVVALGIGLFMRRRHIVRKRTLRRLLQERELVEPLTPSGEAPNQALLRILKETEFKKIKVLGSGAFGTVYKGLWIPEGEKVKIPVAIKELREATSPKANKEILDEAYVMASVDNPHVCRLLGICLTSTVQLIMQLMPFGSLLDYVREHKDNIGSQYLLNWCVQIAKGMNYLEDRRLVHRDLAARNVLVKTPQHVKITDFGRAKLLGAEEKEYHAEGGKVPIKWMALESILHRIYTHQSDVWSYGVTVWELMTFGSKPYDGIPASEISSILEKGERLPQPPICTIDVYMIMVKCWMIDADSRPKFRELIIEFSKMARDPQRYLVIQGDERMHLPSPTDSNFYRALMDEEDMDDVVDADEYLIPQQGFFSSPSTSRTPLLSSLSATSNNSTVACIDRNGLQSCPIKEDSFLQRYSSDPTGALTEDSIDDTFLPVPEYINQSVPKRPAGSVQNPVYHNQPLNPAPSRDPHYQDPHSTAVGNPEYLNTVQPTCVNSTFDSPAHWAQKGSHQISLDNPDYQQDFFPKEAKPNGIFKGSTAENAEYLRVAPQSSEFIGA
Sequence of CtermHisTag-mEGFR Wild type (P00533 whole entry): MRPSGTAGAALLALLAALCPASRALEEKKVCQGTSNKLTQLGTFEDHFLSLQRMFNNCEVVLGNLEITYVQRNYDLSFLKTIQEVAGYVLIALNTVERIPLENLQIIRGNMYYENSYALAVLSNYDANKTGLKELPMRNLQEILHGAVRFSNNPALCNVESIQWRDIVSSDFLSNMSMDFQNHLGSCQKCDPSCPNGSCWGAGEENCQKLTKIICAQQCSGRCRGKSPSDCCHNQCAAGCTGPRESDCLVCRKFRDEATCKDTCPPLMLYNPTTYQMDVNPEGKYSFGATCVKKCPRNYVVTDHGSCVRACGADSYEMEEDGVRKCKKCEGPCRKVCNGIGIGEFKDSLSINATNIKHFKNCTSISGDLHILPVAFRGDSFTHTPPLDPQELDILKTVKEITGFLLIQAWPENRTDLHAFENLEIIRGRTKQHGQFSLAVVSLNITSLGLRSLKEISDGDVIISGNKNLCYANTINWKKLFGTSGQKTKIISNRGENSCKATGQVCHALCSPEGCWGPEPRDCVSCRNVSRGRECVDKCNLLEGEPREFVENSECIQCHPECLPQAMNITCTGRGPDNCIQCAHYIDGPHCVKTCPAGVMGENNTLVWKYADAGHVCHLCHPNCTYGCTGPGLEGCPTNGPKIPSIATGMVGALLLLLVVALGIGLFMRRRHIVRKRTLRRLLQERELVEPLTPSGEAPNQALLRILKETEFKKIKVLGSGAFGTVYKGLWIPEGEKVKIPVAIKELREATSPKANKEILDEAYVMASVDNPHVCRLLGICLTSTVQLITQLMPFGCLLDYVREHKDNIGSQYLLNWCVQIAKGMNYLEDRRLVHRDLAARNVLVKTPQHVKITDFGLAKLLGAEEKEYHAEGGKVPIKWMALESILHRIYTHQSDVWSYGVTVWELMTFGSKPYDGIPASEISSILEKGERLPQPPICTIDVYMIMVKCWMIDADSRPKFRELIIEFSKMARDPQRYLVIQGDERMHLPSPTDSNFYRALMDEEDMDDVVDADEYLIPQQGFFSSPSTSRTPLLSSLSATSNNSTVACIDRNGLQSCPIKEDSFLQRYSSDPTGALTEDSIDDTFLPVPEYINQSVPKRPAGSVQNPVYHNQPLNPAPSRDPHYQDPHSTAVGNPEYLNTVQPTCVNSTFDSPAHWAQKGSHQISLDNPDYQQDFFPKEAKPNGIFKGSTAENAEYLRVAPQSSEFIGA
T1 sequence (P00533 25-1210): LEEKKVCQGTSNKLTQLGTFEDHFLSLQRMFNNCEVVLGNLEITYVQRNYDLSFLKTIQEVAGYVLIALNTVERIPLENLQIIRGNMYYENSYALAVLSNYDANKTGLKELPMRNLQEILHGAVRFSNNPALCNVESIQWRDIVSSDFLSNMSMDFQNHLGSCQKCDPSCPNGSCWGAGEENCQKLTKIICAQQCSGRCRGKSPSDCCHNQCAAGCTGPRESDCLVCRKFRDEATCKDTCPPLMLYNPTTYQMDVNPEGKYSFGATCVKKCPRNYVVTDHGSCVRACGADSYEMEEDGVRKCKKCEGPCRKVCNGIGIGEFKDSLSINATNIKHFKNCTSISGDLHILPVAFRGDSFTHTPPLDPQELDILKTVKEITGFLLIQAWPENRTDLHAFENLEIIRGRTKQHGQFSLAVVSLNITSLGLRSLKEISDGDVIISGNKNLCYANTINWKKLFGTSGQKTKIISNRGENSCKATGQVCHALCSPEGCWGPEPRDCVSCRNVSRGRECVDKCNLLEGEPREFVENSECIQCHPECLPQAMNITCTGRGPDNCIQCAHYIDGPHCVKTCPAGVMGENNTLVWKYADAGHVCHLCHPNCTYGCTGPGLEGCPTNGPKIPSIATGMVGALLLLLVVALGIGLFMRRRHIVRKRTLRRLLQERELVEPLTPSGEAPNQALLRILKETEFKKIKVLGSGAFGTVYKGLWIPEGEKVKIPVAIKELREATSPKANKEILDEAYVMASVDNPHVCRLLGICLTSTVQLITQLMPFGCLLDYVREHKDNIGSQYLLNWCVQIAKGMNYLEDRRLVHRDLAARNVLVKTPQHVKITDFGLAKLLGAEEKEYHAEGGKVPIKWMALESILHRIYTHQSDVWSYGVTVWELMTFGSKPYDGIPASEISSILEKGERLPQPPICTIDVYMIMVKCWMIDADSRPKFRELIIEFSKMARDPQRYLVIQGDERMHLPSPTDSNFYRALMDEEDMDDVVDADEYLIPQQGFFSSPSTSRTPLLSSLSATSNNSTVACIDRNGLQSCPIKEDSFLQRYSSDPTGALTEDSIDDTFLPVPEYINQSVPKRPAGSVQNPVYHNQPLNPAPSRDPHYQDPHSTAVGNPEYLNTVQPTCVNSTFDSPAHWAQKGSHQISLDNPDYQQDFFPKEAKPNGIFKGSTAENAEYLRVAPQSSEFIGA

C#Cc1c(C)c(=O)n(Cc2ccccn2)c2nc(Nc3ccc(N4CCN(C)CC4)cc3)ncc12 [Example 178, 5-Ethynyl-6-methyl-2-{[4-(4-methylpiperazin-1-yl)phenyl]amino}-8-(pyridin-2-ylmethyl)pyrido[2,3-d]pyrimidin-7-one]
IC50 [1]: > 3 µM | IC50 [2]: 0.5 to 1 µM | IC50 [3]: < 1 µM | IC50 [4]: 0.5 to 1 µM

C#Cc1c(C)c(=O)n(Cc2ccncc2)c2nc(Nc3ccc(N4CCN(C)CC4)cc3)ncc12 [Example 179, 5-Ethynyl-6-methyl-2-{[4-(4-methylpiperazin-1-yl)phenyl]amino}-8-(pyridin-4-ylmethyl)pyrido[2,3-d]pyrimidin-7-one]
IC50 [1]: > 3 µM | IC50 [2]: 1 to 3 µM | IC50 [3]: 1 to 10 µM | IC50 [4]: 1 to 3 µM

C#Cc1c(C)c(=O)n(Cc2cnn(C)c2)c2nc(Nc3ccc(N4CCN(C)CC4)cc3)ncc12 [Example 180, 5-Ethynyl-6-methyl-2-{[4-(4-methylpiperazin-1-yl)phenyl]aminol}-8-[(1-methylpyrazol-4-yl)methyl]pyrido[2,3-d]pyrimidin-7-one]
IC50 [1]: > 3 µM | IC50 [2]: 1 to 3 µM | IC50 [3]: 1 to 10 µM | IC50 [4]: 1 to 3 µM

C#Cc1cc(=O)n(C2CCCC2)c2nc(Nc3cccc(CN4CC(CS(C)(=O)=O)C4)c3)ncc12 [Example 181]
IC50 [1]: > 3 µM | IC50 [2]: > 3 µM | IC50 [3]: > 10 µM | IC50 [4]: > 3 µM

C#Cc1cc(=O)n(C2CCCC2)c2nc(Nc3cccc(CN4CCC(CS(C)(=O)=O)C4)c3)ncc12 (centres unmarked) [Example 182]
IC50 [1]: > 3 µM | IC50 [2]: > 3 µM | IC50 [3]: > 10 µM | IC50 [4]: > 3 µM

C#Cc1cc(=O)n(C2CCCC2)c2nc(Nc3cccc(CN4CCC(CS(C)(=O)=O)CC4)c3)ncc12 [Example 183]
IC50 [1]: > 3 µM | IC50 [2]: > 3 µM | IC50 [3]: > 10 µM | IC50 [4]: > 3 µM

C#Cc1cc(=O)n(C2CCCC2)c2nc(Nc3cccc4c3CN(C)C4)ncc12 [Example 184, 8-Cyclopentyl-5-ethynyl-2-[(2-methvl-1,3-dihydroisoindol-4-yl)amino]pyrido[2,3-d]pyrimidin-7-one]
IC50 [1]: > 3 µM | IC50 [2]: > 3 µM | IC50 [3]: 1 to 10 µM | IC50 [4]: > 3 µM

C#Cc1cc(=O)n(C2CCCC2)c2nc(Nc3cccc4c3CCN(C)C4)ncc12 [Example 185, 8-Cyclopentyl-5-ethynyl-2-[(2-methyl-3,4-dihydro-1H-isoquinolin-5-yl)amino]pyrido[2,3-d]pyrimidin-7-one]
IC50 [1]: > 3 µM | IC50 [2]: > 3 µM | IC50 [3]: > 10 µM | IC50 [4]: > 3 µM

C#Cc1cc(=O)n2c3nc(ncc13)Nc1cccc(c1)OCCC2 [Example 186, 1^5-ethynyl-1^7,1^8-dihydro-4-oxa-2-aza-1(2,8)-pyrido[2,3-d]pyrimidina-3(1,3)-benzenacycloheptaphan-1^7-one]
IC50 [1]: > 3 µM | IC50 [2]: > 3 µM | IC50 [3]: > 10 µM | IC50 [4]: > 3 µM

C#Cc1cc(=O)n2c3nc(ncc13)Nc1cccc(c1)OC/C=C\C2 [Example 187, (Z)-1^5-ethynyl-1^7,1^8-dihydro-4-oxa-2-aza-1(2,8)-pyrido[2,3-d]pyrimidina-3(1,3)-benzenacyclooctaphan-6-en-1^7-one]
IC50 [1]: > 3 µM | IC50 [2]: 0.5 to 1 µM | IC50 [3]: 1 to 10 µM | IC50 [4]: < 0.5 µM

C#Cc1cc(=O)n2c3nc(ncc13)Nc1ccc(N3CCN(C)CC3)c(c1)OC/C=C\C2 [Example 188, (Z)-1^5-ethynyl-3^4-(4-methylpiperazin-1-yl)-1^7,1^8-dihydro-4-oxa-2-aza-1(2,8)-pyrido[2,3-d]pyrimidina-3(1,3)-benzenacyclooctaphan-6-en-1^7-one]
IC50 [1]: 0.5 to 1 µM | IC50 [2]: < 0.5 µM | IC50 [3]: < 1 µM | IC50 [4]: < 0.5 µM

C#Cc1cc(=O)n2c3nc(ncc13)Nc1ccc(N3CCN(C)CC3)c(c1)OCCCC2 [Example 189, 1^5-ethynyl-3^4-(4-methylpiperazin-1-yl)-1^7,1^8-dihydro-4-oxa-2-aza-1(2,8)-pyrido[2,3-d]pyrimidina-3(1,3)-benzenacyclooctaphan-1^7-one]
IC50 [1]: 0.5 to 1 µM | IC50 [2]: < 0.5 µM | IC50 [3]: < 1 µM | IC50 [4]: < 0.5 µM

C#Cc1c(C)c(=O)n2c3nc(ncc13)Nc1cccc(c1)OC/C=C\C2 [Example 190, (Z)-1^5-ethynyl-1^6-methyl-1^7,1^8-dihydro-4-oxa-2-aza-1(2,8)-pyrido[2,3-d]pyrimidina-3(1,3)-benzenacyclooctaphan-6-en-1^7-one]
IC50 [1]: > 3 µM | IC50 [2]: 1 to 3 µM | IC50 [3]: > 10 µM | IC50 [4]: 1 to 3 µM

C#Cc1c(C)c(=O)n2c3nc(ncc13)Nc1cccc(c1)OCCCC2 [Example 191, 1^5-ethynyl-1^6-methyl-1^7,1^8-dihydro-4-oxa-2-aza-1(2,8)-pyrido[2,3-d]pyrimidina-3(1,3)-benzenacyclooctaphan-1^7-one]
IC50 [1]: > 3 µM | IC50 [2]: > 3 µM | IC50 [3]: 1 to 10 µM | IC50 [4]: > 3 µM

C#Cc1cc(=O)n2c3nc(ncc13)Nc1cccc(c1)OC[C@H]1CC[C@H](C1)C2 [Example 192, (5^1R,5^3S)-3^5-ethynyl-3^7,3^8-dihydro-7-oxa-2-aza-3(2,8)-pyrido[2,3-d]pyrimidina-1(1,3)-benzena-5(1,3)-cyclopentanacycloheptaphan-3^7-one]
IC50 [1]: > 3 µM | IC50 [2]: 0.5 to 1 µM | IC50 [3]: > 10 µM | IC50 [4]: 0.5 to 1 µM

C#Cc1cc(=O)n2c3nc(ncc13)Nc1cccc(c1)OCCCC2 [Example 193, 1^5-Ethynyl-1^7,1^8-dihydro-4-oxa-2-aza-1(2,8)-pyrido[2,3-d]pyrimidina-3(1,3)-benzenacyclooctaphan-1^7-one]
IC50 [1]: > 3 µM | IC50 [2]: 0.5 to 1 µM | IC50 [3]: > 10 µM | IC50 [4]: < 0.5 µM

C#Cc1c(C)c(=O)n2c3nc(ncc13)Nc1ccc(N3CCN(C)CC3)c(c1)OCCCC2 [Example 194, 1^5-Ethynyl-1^6-methyl-3^4-(4-methylpiperazin-1-yl)-1^7,1^8-dihydro-4-oxa-2-aza-1(2,8)-pyrido [2,3-d]pyrimidina-3(1,3)-benzenacyclooctaphan-1^7-one]
IC50 [1]: < 0.5 µM | IC50 [2]: < 0.5 µM | IC50 [3]: < 1 µM | IC50 [4]: < 0.5 µM

C#Cc1cc(=O)n2c3nc(ncc13)Nc1cccc(c1)COC/C=C\C2 [Example 195, (Z)-1^5-ethynyl-1^7,1^8-dihydro-5-oxa-2-aza-1(2,8)-pyrido[2,3-d]pyrimidina-3(1,3)-benzenacyclononaphan-7-en-1^7-one]
IC50 [1]: > 3 µM | IC50 [2]: > 3 µM | IC50 [3]: < 1 µM | IC50 [4]: 0.5 to 1 µM

C#Cc1cc(=O)n2c3nc(ncc13)Nc1ccc(N3CCN(C)CC3)c(c1)COCCC2 [Example 196, 1^5-Ethynyl-34-(4-methylpiperazin-1-yl)-1^7, 1^8-dihydro-5-oxa-2-aza-1(2,8)-pyrido[2,3-d]pyrimidina-3(1,3)-benzenacyclooctaphan-1^7-one]
IC50 [1]: > 3 µM | IC50 [2]: > 3 µM | IC50 [3]: > 10 µM | IC50 [4]: > 3 µM

C#Cc1cc(=O)n2c3nc(ncc13)Nc1ccc(N3CCN(C)CC3)c(c1)CC(=O)NCC2 [Example 197, 1^5-Ethynyl-3^4-(4-methylpiperazin-1-yl)-1^7,1^8-dihydro-2,6-diaza-1(2,8)-pyrido[2,3-d]pyrimidina-3(1,3)-benzenacyclooctaphane-1^7,5-dione]
IC50 [1]: > 3 µM | IC50 [2]: 1 to 3 µM | IC50 [3]: > 10 µM | IC50 [4]: 1 to 3 µM
